From US9409952B2, “Peptide-compound cyclization method” (Chugai Seiyaku Kabushiki Kaisha, priority 2011, dated 2016) come the findings set out here.

Starred links: 1 amine or outer side, 2 acyl side, 3 side chain; linkers in the order of their positions; H or OH if unused. Positions of bridges follow the written chain, without caps; N, C: chain ends. Non-standard residues stand in square brackets, D forms with d. Residues, ends and D or L forms follow the SMILES beside them. ξ: configuration not given here. *: point of attachment. NMeF = CN[C@@H](Cc1ccccc1)C(=O)O; NMeβAla = CN(CCC(=O)[*:2])[*:1]; NMeL = CN[C@@H](CC(C)C)C(=O)O; ξNMeF = CNC(Cc1ccccc1)C(=O)O; NMeV = CN[C@H](C(=O)O)C(C)C; NMeA = CN[C@@H](C)C(=O)O; Piperidide = C1CCN(*)CC1; dNMeA = CN[C@H](C)C(=O)O; Sar = CNCC(=O)O

Series [1] in a line: Metabolic stability in human hepatic microsome. The format is in vitro ADME. To be noted: microsomes, pH 7.4; human hepatic microsome, NADPH(+); read-out: CL NADPH(+).
Series [2] is described as follows: PAMPA (parallel artificial membrane permeability assay). The format is in vitro ADME. To be noted: PAMPA; membrane permeation rate (Pe); 50 mM MOPSO buffer pH 6.5 with 5.0% glycocholic acid, 37° C., 18 hours; read-out: iPAMPA Pe. The essentials:
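Artificial membrane was 10% (w/v) egg lecithin plus 0.5% (w/v) cholesterol in dodecane on a PVDF filter. A 10 mM DMSO stock was added at 0.5% (v/v) to donor buffer (50 mM MOPSO, pH 6.5, 5.0% glycocholic acid). After 18 h at 37 °C, LC/MS or LC/UV gave donor and acceptor levels for Pe.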
Background: PAMPA measures passive passage across an artificial lipid membrane.

As for `CC[C@H](C)[C@@H]1NC(=O)[C@H](C)N(C)C(=O)[C@H](C)N(C)C(=O)[C@H]([C@@H](C)O)NC(=O)[C@H](CC(C)C)N(C)C(=O)[C@H](CC(C)C)NC(=O)[C@H](Cc2ccccc2)N(C)C(=O)[C@@H](C)NC(=O)C[C@@H](C(=O)N(C)[C@@H](Cc2ccccc2)C(=O)N[C@@H](C)C(=O)N2CCCCC2)NC(=O)[C@H](C(C)C)N(C)C(=O)[C@H](Cc2ccccc2)N(C)C1=O` [DP-180] ([dA][NMeF]L[NMeL]T[NMeA][NMeA]I[NMeF][NMeV]D[NMeF]A-Piperidide; lactam N-11), in series [1], the microsomal CLint at 1 uM is 35 µL/min/mg. In addition, the Papp at 18 hours, 50 µM in series [2] is 23 ×10⁻⁶ cm/s.
Taken in the same sequence, the figures for `CC(C)C[C@@H]1NC(=O)[C@H](CC(C)C)N(C)C(=O)[C@H](C)N(C)C(=O)[C@H](Cc2ccccc2)NC(=O)[C@H](C(C)C)N(C)C(=O)CNC(=O)[C@H]([C@@H](C)O)NC(=O)[C@H](C)N(C)C(=O)[C@H](CC(C)C)N(C)C(=O)[C@H](C)N(C)C(=O)C[C@@H](C(=O)N(C)[C@@H](Cc2ccccc2)C(=O)N[C@@H](C)C(=O)N2CCCCC2)NC1=O` [DP-181] ([NMeA][NMeL][NMeA]TG[NMeV]F[NMeA][NMeL]LD[NMeF]A-Piperidide; lactam N-11) were 13 µL/min/mg and 18 ×10⁻⁶ cm/s.
Take `CC(C)C[C@@H]1NC(=O)[C@H](CC(C)C)N(C)C(=O)[C@@H]2CCCN2C(=O)[C@H](CC(C)C)N(C)C(=O)[C@H](Cc2ccccc2)NC(=O)CNC(=O)[C@H](CC(C)C)N(C)C(=O)[C@H](Cc2ccccc2)NC(=O)CCN(C)C(=O)C[C@@H](C(=O)N(C)[C@@H](Cc2ccccc2)C(=O)N[C@@H](C)C(=O)N2CCCCC2)NC(=O)[C@H]([C@@H](C)O)NC1=O` [DP-182] ([NMeβAla]F[NMeL]GF[NMeL]P[NMeL]LTD[NMeF]A-Piperidide; lactam N-11): the microsomal CLint at 1 uM in series [1] is 9 µL/min/mg. In series [2], the Papp at 18 hours, 50 µM stood at 26 ×10⁻⁶ cm/s.
Turning to `CC[C@H](C)[C@@H]1NC(=O)[C@@H](C)N(C)C(=O)C[C@@H](C(=O)N(C)[C@@H](Cc2ccccc2)C(=O)N[C@@H](C)C(=O)N2CCCCC2)NC(=O)[C@H](Cc2ccccc2)N(C)C(=O)CN(C)C(=O)[C@H]([C@@H](C)O)NC(=O)[C@H](C)N(C)C(=O)[C@H](C(C)C)N(C)C(=O)[C@H](Cc2ccccc2)NC(=O)[C@H](CC(C)C)N(C)C(=O)[C@H](CC(C)C)N(C)C1=O` [DP-183] ([dNMeA]I[NMeL][NMeL]F[NMeV][NMeA]T[Sar][NMeF]D[NMeF]A-Piperidide; lactam N-11), the microsomal CLint at 1 uM in series [1] was determined as 25 µL/min/mg. In addition, the Papp at 18 hours, 50 µM in series [2] was 29 ×10⁻⁶ cm/s.
Consider `CC(C)C[C@@H]1NC(=O)[C@H]([C@@H](C)O)NC(=O)[C@@H]2CCCN2C(=O)CNC(=O)[C@H](CC(C)C)N(C)C(=O)[C@H](Cc2ccccc2)NC(=O)[C@H](CC(C)C)N(C)C(=O)[C@H](CC(C)C)N(C)C(=O)[C@H](Cc2ccccc2)NC(=O)CN(C)C(=O)C[C@@H](C(=O)N(C)C(Cc2ccccc2)C(=O)N[C@@H](C)C(=O)N2CCCCC2)NC1=O` (some centres unmarked) [DP-185] ([Sar]F[NMeL][NMeL]F[NMeL]GPTLD[ξNMeF]A-Piperidide; lactam N-11), for which, in series [1], the microsomal CLint at 1 uM stood at 19 µL/min/mg. Moreover, in series [2], the Papp at 18 hours, 50 µM worked out at 46 ×10⁻⁶ cm/s.
On the same counts, the results for `CC(C)C[C@H]1C(=O)N(C)[C@@H](C(C)C)C(=O)N[C@@H](C(C)C)C(=O)N[C@H](C(=O)N(C)[C@@H](Cc2ccccc2)C(=O)N[C@@H](C)C(=O)N2CCCCC2)CC(=O)N[C@@H](C)C(=O)N[C@@H](Cc2ccccc2)C(=O)N(C)[C@@H](CC(C)C)C(=O)N[C@@H]([C@@H](C)O)C(=O)N(C)[C@@H](Cc2ccccc2)C(=O)NCC(=O)N1C` [DP-187] (AF[NMeL]T[NMeF]G[NMeL][NMeV]VD[NMeF]A-Piperidide; lactam N-10) are 22 µL/min/mg and 43 ×10⁻⁶ cm/s.
Regarding `CC(C)C[C@H]1C(=O)N(C)[C@@H](CC(C)C)C(=O)N[C@H](C(=O)N(C)[C@@H](Cc2ccccc2)C(=O)N[C@@H](C)C(=O)N2CCCCC2)CC(=O)N[C@@H](C)C(=O)N(C)[C@@H](C)C(=O)N(C)[C@@H](Cc2ccccc2)C(=O)N(C)[C@@H](CC(C)C)C(=O)N[C@@H]([C@@H](C)O)C(=O)N(C)CC(=O)N[C@@H](C(C)C)C(=O)N1C` [DP-188] (A[NMeA][NMeF][NMeL]T[Sar]V[NMeL][NMeL]D[NMeF]A-Piperidide; lactam N-10), the microsomal CLint at 1 uM in series [1] came to 84 µL/min/mg. The Papp at 18 hours, 50 µM in series [2] came to 28 ×10⁻⁶ cm/s.
`CC[C@H](C)[C@@H]1NC(=O)[C@H](Cc2ccccc2)N(C)C(=O)[C@H]([C@@H](C)O)NC(=O)[C@@H](C)NC(=O)C[C@@H](C(=O)N(C)[C@@H](Cc2ccccc2)C(=O)N[C@@H](C)C(=O)N2CCCCC2)NC(=O)[C@H](CC(C)C)N(C)C(=O)[C@H](CC(C)C)N(C)C(=O)[C@H](Cc2ccccc2)N(C)C(=O)[C@H](CC(C)C)N(C)C(=O)[C@H](C)N(C)C1=O` [DP-189] ([dA]T[NMeF]I[NMeA][NMeL][NMeF][NMeL][NMeL]D[NMeF]A-Piperidide; lactam N-10): the microsomal CLint at 1 uM in series [1] was determined as 3 µL/min/mg. For the same molecule, the Papp at 18 hours, 50 µM in series [2] was determined as 1.4 ×10⁻⁶ cm/s.
Take `CC[C@H](C)[C@@H]1NC(=O)[C@H](C)N(C)C(=O)[C@H](CC(C)C)N(C)C(=O)[C@@H](C(C)C)NC(=O)C[C@@H](C(=O)N(C)[C@@H](Cc2ccccc2)C(=O)N[C@@H](C)C(=O)N2CCCCC2)NC(=O)[C@H]([C@@H](C)O)NC(=O)[C@H](CC(C)C)N(C)C(=O)[C@H](Cc2ccccc2)N(C)C(=O)[C@H](CC(C)C)N(C)C(=O)[C@H](Cc2ccccc2)N(C)C1=O` [DP-190] ([dV][NMeL][NMeA]I[NMeF][NMeL][NMeF][NMeL]TD[NMeF]A-Piperidide; lactam N-10): the microsomal CLint at 1 uM in series [1] came out at 3 µL/min/mg. For the same molecule, the Papp at 18 hours, 50 µM in series [2] amounted to 0.6 ×10⁻⁶ cm/s.
On to `CC(C)C[C@H]1C(=O)N(C)[C@@H](Cc2ccccc2)C(=O)N(C)[C@@H](C(C)C)C(=O)N[C@@H](Cc2ccccc2)C(=O)N[C@H](C(=O)N(C)[C@@H](Cc2ccccc2)C(=O)N[C@@H](C)C(=O)N2CCCCC2)CC(=O)N(C)[C@@H](C)C(=O)N[C@@H](C(C)C)C(=O)N(C)[C@@H](CC(C)C)C(=O)N[C@@H]([C@@H](C)O)C(=O)NCC(=O)N1C` [DP-191] ([NMeA]V[NMeL]TG[NMeL][NMeF][NMeV]FD[NMeF]A-Piperidide; lactam N-10), for which the microsomal CLint at 1 uM in series [1] worked out at 46 µL/min/mg. In series [2], the Papp at 18 hours, 50 µM is 34 ×10⁻⁶ cm/s.
Taken in the same sequence, the figures for `CC(C)C[C@H]1C(=O)N[C@@H]([C@@H](C)O)C(=O)N(C)[C@@H](Cc2ccccc2)C(=O)N(C)[C@@H](CC(C)C)C(=O)NCC(=O)N(C)[C@@H](C(C)C)C(=O)N[C@@H](Cc2ccccc2)C(=O)N[C@H](C(=O)N(C)[C@@H](Cc2ccccc2)C(=O)N[C@@H](C)C(=O)N2CCCCC2)CC(=O)N(C)CCC(=O)N[C@@H](C(C)C)C(=O)N1C` [DP-193] ([NMeβAla]V[NMeL]T[NMeF][NMeL]G[NMeV]FD[NMeF]A-Piperidide; lactam N-10) were 124 µL/min/mg and 53 ×10⁻⁶ cm/s.
With `CC(C)C[C@H]1C(=O)N(C)[C@@H](CC(C)C)C(=O)N[C@H](C(=O)N(C)[C@@H](Cc2ccccc2)C(=O)N[C@@H](C)C(=O)N2CCCCC2)CC(=O)N(C)CCC(=O)N(C)[C@@H](C)C(=O)N(C)[C@@H](CC(C)C)C(=O)N[C@@H]([C@@H](C)O)C(=O)N(C)[C@@H](Cc2ccccc2)C(=O)N[C@@H](C(C)C)C(=O)N(C)CC(=O)N1C` [DP-194] ([NMeβAla][NMeA][NMeL]T[NMeF]V[Sar][NMeL][NMeL]D[NMeF]A-Piperidide; lactam N-10), in series [1], the microsomal CLint at 1 uM amounted to 72 µL/min/mg. Also, the Papp at 18 hours, 50 µM in series [2] turned out to be 22 ×10⁻⁶ cm/s.
In the case of `CC[C@H](C)[C@@H]1NC(=O)[C@H](C)N(C)C(=O)[C@H]([C@@H](C)O)NC(=O)[C@H](C)N(C)C(=O)[C@H](C(C)C)N(C)C(=O)[C@H](Cc2ccccc2)NC(=O)CN(C)C(=O)C[C@@H](C(=O)N(C)[C@@H](Cc2ccccc2)C(=O)N[C@@H](C)C(=O)N2CCCCC2)NC(=O)[C@H](C)N(C)C(=O)[C@H](CC(C)C)N(C)C1=O` [DP-195] ([Sar]F[NMeV][NMeA]T[NMeA]I[NMeL][NMeA]D[NMeF]A-Piperidide; lactam N-10), in series [1], the microsomal CLint at 1 uM was found to be 52 µL/min/mg. Moreover, the Papp at 18 hours, 50 µM in series [2] was 8 ×10⁻⁶ cm/s.
For `CC(C)C[C@H]1C(=O)N[C@@H](C(C)C)C(=O)N[C@H](C(=O)N(C)[C@@H](Cc2ccccc2)C(=O)N[C@@H](C)C(=O)N2CCCCC2)CC(=O)N[C@@H](C)C(=O)N(C)[C@@H](Cc2ccccc2)C(=O)N(C)[C@@H](C)C(=O)N(C)[C@@H](CC(C)C)C(=O)N[C@@H]([C@@H](C)O)C(=O)N(C)CC(=O)N1C` [DP-196] (A[NMeF][NMeA][NMeL]T[Sar][NMeL]VD[NMeF]A-Piperidide; lactam N-9), in series [1], the microsomal CLint at 1 uM is 65 µL/min/mg. The Papp at 18 hours, 50 µM in series [2] came to 29 ×10⁻⁶ cm/s.
Taken in the same sequence, the figures for `CC(C)C[C@H]1C(=O)N[C@H](C(=O)N(C)[C@@H](Cc2ccccc2)C(=O)N[C@@H](C)C(=O)N2CCCCC2)CC(=O)N[C@H](C)C(=O)N(C)[C@@H](Cc2ccccc2)C(=O)N(C)[C@@H](CC(C)C)C(=O)N[C@@H]([C@@H](C)O)C(=O)N(C)[C@@H](C)C(=O)N(C)[C@@H](CC(C)C)C(=O)N[C@@H](C(C)C)C(=O)N1C` [DP-197] ([dA][NMeF][NMeL]T[NMeA][NMeL]V[NMeL]D[NMeF]A-Piperidide; lactam N-9) were 48 µL/min/mg and 27 ×10⁻⁶ cm/s.
For `CC(C)C[C@H]1C(=O)N[C@@H](C(C)C)C(=O)N[C@H](C(=O)N(C)[C@@H](Cc2ccccc2)C(=O)N[C@@H](C)C(=O)N2CCCCC2)CC(=O)N[C@H](C(C)C)C(=O)N(C)[C@@H](Cc2ccccc2)C(=O)N(C)[C@@H](C)C(=O)N(C)[C@@H](CC(C)C)C(=O)N[C@@H]([C@@H](C)O)C(=O)N(C)CC(=O)N1C` [DP-198] ([dV][NMeF][NMeA][NMeL]T[Sar][NMeL]VD[NMeF]A-Piperidide; lactam N-9), the microsomal CLint at 1 uM in series [1] was found to be 34 µL/min/mg. In addition, the Papp at 18 hours, 50 µM in series [2] came to 36 ×10⁻⁶ cm/s.
